Where a name gives a salt, the structure may show the parent alone. Read-outs that look alike come from different tables or passages of the source.
Legend:
mice (male and female) = assay: Acute intravenous toxicity in mice; format: in vivo, mouse; conditions: mice, administered within twenty minutes following preparation
[1] = Acute intravenous toxicity in mice; format: in vivo, mouse; conditions: mouse, in vivo, iv, mice male and female, read-out: LD50 (95% Confidence Limits)
physchem = conditions: water
Protocol: The water in the filtrate was removed in vacuo and the residue weighed and found to be 16.7 mg.

[2] = test system: spontaneously hypertensive (SH) rats; assay: Antihypertensive effect (blood pressure and heart rate) in spontaneously hypertensive rats; format: in vivo, rat; conditions: for Percent Change BP (blood pressure) / Percent Change HR (heart rate): N=4, mean
Protocol: The screening is conducted as follows:
Male spontaneously hypertensive (SH) rats are trained to be restrained in a wire mesh cylinder in a warming box, at least two training cycles being conducted before testing. The rats are warmed for about 1/2 hour period to blood pressure measurement, the warming box being maintained at a constant temperature of 36° C.
An occluding cuff attached to the programed sphymomanometer is placed near the base of the tail of each rat and the pressure in the cuff is increased automatically from 0 to 250 milimeters of mercury (mm Hg) at a rate of 10 mm Hg per second. The total time for each cycle of inflation and deflation of the cuff is 50 seconds and the interval between cycles is one minute.
A photocell is placed distal to the cuff to record the pulses due to forward motion of blood flow with each heart beat. As the pressure in the cuff increases, the pulse disappears completely at a point where cuff pressure equals or exceeds the arterial blood pressure and it reappears during deflation at approximately the same pressure. Five interference free signals for deflation are recorded for each rat. Rats with a blood pressure of 180 mm Hg or more during the control period are used in the study. Blood pressure and heart rate readings are recorded on a model VII Grass polygraph at intervals of 1, 3, 5 and 24 hours after administration of the drug.

[3] = cited from earlier work
[4] = background statement on prazosin; cited from earlier work
[5] = intraperitoneal 0.3 mg/kg, 1 hour
[6] = intraperitoneal 0.3 mg/kg, 3 hours
[7] = intraperitoneal 0.3 mg/kg, 5 hours
[8] = intraperitoneal 0.3 mg/kg, 24 hours
[9] = intraperitoneal 1 mg/kg, 1 hour
[10] = intraperitoneal 1 mg/kg, 3 hours
[11] = intraperitoneal 1 mg/kg, 5 hours
[12] = intraperitoneal 1 mg/kg, 24 hours
[13] = intraperitoneal 3 mg/kg, 1 hour
[14] = intraperitoneal 3 mg/kg, 3 hours
[15] = intraperitoneal 3 mg/kg, 5 hours
[16] = intraperitoneal 3 mg/kg, 24 hours
[17] = intraperitoneal 10 mg/kg, 1 hour
[18] = intraperitoneal 10 mg/kg, 3 hours
[19] = intraperitoneal 10 mg/kg, 5 hours
[20] = intraperitoneal 10 mg/kg, 24 hours
[21] = intraperitoneal 30 mg/kg, 1 hour
[22] = intraperitoneal 30 mg/kg, 3 hours
[23] = intraperitoneal 30 mg/kg, 5 hours
[24] = intraperitoneal 30 mg/kg, 24 hours

## COc1cc2nc(N3CCN(C(=O)C4CCCO4)CC3)nc(N)c2cc1OC (stereo not shown) [2[4-(Tetrahydro-2-Furoyl)Piperazinyl]-4-Amino-6,7-Dimethoxyquinazoline Hydrochloride]
Mice (male and female)
  toxicity in comparison to the compound of Formula I: significantly lower toxicity than the compound of Formula I
[1]; injected 24 hours after formulation (B)
  LD50: 253 mg/kg
[1]; injected immediately after formulation (A)
  LD50: 259 mg/kg
physchem
  solubility: 590 mg/mL
[2]; intraperitoneal 30 mg./kg.
  duration of the effect (decrease in blood pressure): greater than 24 hours
[2]; oral, 3 and 10 mg./kg., up to approximately
  fall in blood pressure: ≤ 40%

## COc1cc2nc(N3CCN(C(=O)c4ccco4)CC3)nc(N)c2cc1OC [Formula I, 2-[4-(2-furoyl)-1-piperazine-1-yl]-4-amino-6,7-dimethoxyquinazoline, reference compound]
[2]; [5]
  Percent Change BP (blood pressure): -20.8%
  Percent Change HR (heart rate): -2.5%
[2]; [6]
  Percent Change BP (blood pressure): -18.3%
  Percent Change HR (heart rate): -0.5%
[2]; [7]
  Percent Change BP (blood pressure): -13.8%
  Percent Change HR (heart rate): -12.0%
[2]; [8]
  Percent Change BP (blood pressure): -4.3%
  Percent Change HR (heart rate): -5.0%
[2]; [9]
  Percent Change BP (blood pressure): -20.0%
  Percent Change HR (heart rate): 2.8%
[2]; [10]
  Percent Change BP (blood pressure): -15.3%
  Percent Change HR (heart rate): 1.8%
[2]; [11]
  Percent Change BP (blood pressure): -13.5%
  Percent Change HR (heart rate): 10.5%
[2]; [12]
  Percent Change BP (blood pressure): 3.5%
  Percent Change HR (heart rate): 12.8%
[2]; [13]
  Percent Change BP (blood pressure): -45.0%
  Percent Change HR (heart rate): 0.3%
[2]; [14]
  Percent Change BP (blood pressure): -31.5%
  Percent Change HR (heart rate): -6.5%
[2]; [15]
  Percent Change BP (blood pressure): -26.3%
  Percent Change HR (heart rate): -17.0%
[2]; [16]
  Percent Change BP (blood pressure): -2.3%
  Percent Change HR (heart rate): -4.0%
[2]; [17]
  Percent Change BP (blood pressure): -41.0%
  Percent Change HR (heart rate): 5.8%
[2]; [18]
  Percent Change BP (blood pressure): -34.0%
  Percent Change HR (heart rate): 14.8%
[2]; [19]
  Percent Change BP (blood pressure): -27.0%
  Percent Change HR (heart rate): 7.3%
[2]; [20]
  Percent Change BP (blood pressure): -13.0%
  Percent Change HR (heart rate): -7.5%
[2]; [21]
  Percent Change BP (blood pressure): -43.3%
  Percent Change HR (heart rate): -1.8%
[2]; [22]
  Percent Change BP (blood pressure): -48.5%
  Percent Change HR (heart rate): 4.8%
[2]; [23]
  Percent Change BP (blood pressure): -55.5%
  Percent Change HR (heart rate): 3.5%
[2]; [24]
  Percent Change BP (blood pressure): -24.5%
  Percent Change HR (heart rate): -6.5%
[2]; oral 0.03 mg/kg, 1 hour
  Percent Change BP (blood pressure): -4.5%
  Percent Change HR (heart rate): 4.8%
[2]; oral 0.03 mg/kg, 3 hours
  Percent Change BP (blood pressure): -0.8%
  Percent Change HR (heart rate): -9.3%
[2]; oral 0.03 mg/kg, 5 hours
  Percent Change BP (blood pressure): -11.5%
  Percent Change HR (heart rate): -9.8%
[2]; oral 0.03 mg/kg, 24 hours
  Percent Change BP (blood pressure): 1.3%
  Percent Change HR (heart rate): -2.0%
[2]; oral 0.1 mg/kg, 1 hour
  Percent Change BP (blood pressure): -9.8%
  Percent Change HR (heart rate): 13.5%
[2]; oral 0.1 mg/kg, 3 hours
  Percent Change BP (blood pressure): -17.5%
  Percent Change HR (heart rate): 18.3%
[2]; oral 0.1 mg/kg, 5 hours
  Percent Change BP (blood pressure): -22.8%
  Percent Change HR (heart rate): 1.5%
[2]; oral 0.1 mg/kg, 24 hours
  Percent Change BP (blood pressure): -1.3%
  Percent Change HR (heart rate): 3.5%
[2]; oral 0.3 mg/kg, 1 hour
  Percent Change BP (blood pressure): -32.8%
  Percent Change HR (heart rate): -5.5%
[2]; oral 0.3 mg/kg, 3 hours
  Percent Change BP (blood pressure): -33.8%
  Percent Change HR (heart rate): -5.0%
[2]; oral 0.3 mg/kg, 5 hours
  Percent Change BP (blood pressure): -30.0%
  Percent Change HR (heart rate): -13.8%
[2]; oral 0.3 mg/kg, 24 hours
  Percent Change BP (blood pressure): -12.3%
  Percent Change HR (heart rate): 3.0%
[2]; oral 1 mg/kg, 1 hour
  Percent Change BP (blood pressure): -31.8%
  Percent Change HR (heart rate): 2.0%
[2]; oral 1 mg/kg, 3 hours
  Percent Change BP (blood pressure): -17.8%
  Percent Change HR (heart rate): 6.8%
[2]; oral 1 mg/kg, 5 hours
  Percent Change BP (blood pressure): -19.5%
  Percent Change HR (heart rate): -1.0%
[2]; oral 1 mg/kg, 24 hours
  Percent Change BP (blood pressure): -2.3%
  Percent Change HR (heart rate): 10.0%
[2]; oral 3 mg/kg, 1 hour
  Percent Change BP (blood pressure): -19.3%
  Percent Change HR (heart rate): 0.5%
[2]; oral 3 mg/kg, 3 hours
  Percent Change BP (blood pressure): -19.8%
  Percent Change HR (heart rate): 11.5%
[2]; oral 3 mg/kg, 5 hours
  Percent Change BP (blood pressure): -20.5%
  Percent Change HR (heart rate): 1.5%
[2]; oral 3 mg/kg, 24 hours
  Percent Change BP (blood pressure): 5.3%
  Percent Change HR (heart rate): 6.0%
[2]; oral 10 mg/kg, 1 hour
  Percent Change BP (blood pressure): -23.8%
  Percent Change HR (heart rate): 3.0%
[2]; oral 10 mg/kg, 3 hours
  Percent Change BP (blood pressure): -22.3%
  Percent Change HR (heart rate): 12.3%
[2]; oral 10 mg/kg, 5 hours
  Percent Change BP (blood pressure): -22.0%
  Percent Change HR (heart rate): -0.8%
[2]; oral 10 mg/kg, 24 hours
  Percent Change BP (blood pressure): -2.3%
  Percent Change HR (heart rate): 23.3%
[2]; oral 30 mg/kg, 1 hour
  Percent Change BP (blood pressure): -34.0%
  Percent Change HR (heart rate): -3.8%
[2]; oral 30 mg/kg, 3 hours
  Percent Change BP (blood pressure): -31.3%
  Percent Change HR (heart rate): -11.5%
[2]; oral 30 mg/kg, 5 hours
  Percent Change BP (blood pressure): -29.3%
  Percent Change HR (heart rate): -14.8%
[2]; oral 30 mg/kg, 24 hours
  Percent Change BP (blood pressure): -14.5%
  Percent Change HR (heart rate): -1.5%
[3]; The Lancet, May 10, 1975
  fall in blood pressure in words: profound fall in blood pressure
  toxicity in words: significant toxicity
[3]; following use of the drug, The Lancet and British Medical Journal, June 28, 1975
  collapse with loss of consciousness: Sudden collapse with loss of consciousness for periods ranging from a few minutes to one hour
[4]
  solubility in words: very low solubility

Source: patent US4112097A, “Antihypertensive agents” (Abbott Laboratories, priority 1977, dated 1978)
